Results reported in ChEMBL document CHEMBL1201862, “PubChem BioAssay data set” (2004).
Active and inactive are the calls of the source.

Columns and labels:
[1] = target: T1, Sentrin-specific protease 6 (Homo sapiens, UniProt Q9GZR1); type: functional
T1 sequence (Q9GZR1 whole entry): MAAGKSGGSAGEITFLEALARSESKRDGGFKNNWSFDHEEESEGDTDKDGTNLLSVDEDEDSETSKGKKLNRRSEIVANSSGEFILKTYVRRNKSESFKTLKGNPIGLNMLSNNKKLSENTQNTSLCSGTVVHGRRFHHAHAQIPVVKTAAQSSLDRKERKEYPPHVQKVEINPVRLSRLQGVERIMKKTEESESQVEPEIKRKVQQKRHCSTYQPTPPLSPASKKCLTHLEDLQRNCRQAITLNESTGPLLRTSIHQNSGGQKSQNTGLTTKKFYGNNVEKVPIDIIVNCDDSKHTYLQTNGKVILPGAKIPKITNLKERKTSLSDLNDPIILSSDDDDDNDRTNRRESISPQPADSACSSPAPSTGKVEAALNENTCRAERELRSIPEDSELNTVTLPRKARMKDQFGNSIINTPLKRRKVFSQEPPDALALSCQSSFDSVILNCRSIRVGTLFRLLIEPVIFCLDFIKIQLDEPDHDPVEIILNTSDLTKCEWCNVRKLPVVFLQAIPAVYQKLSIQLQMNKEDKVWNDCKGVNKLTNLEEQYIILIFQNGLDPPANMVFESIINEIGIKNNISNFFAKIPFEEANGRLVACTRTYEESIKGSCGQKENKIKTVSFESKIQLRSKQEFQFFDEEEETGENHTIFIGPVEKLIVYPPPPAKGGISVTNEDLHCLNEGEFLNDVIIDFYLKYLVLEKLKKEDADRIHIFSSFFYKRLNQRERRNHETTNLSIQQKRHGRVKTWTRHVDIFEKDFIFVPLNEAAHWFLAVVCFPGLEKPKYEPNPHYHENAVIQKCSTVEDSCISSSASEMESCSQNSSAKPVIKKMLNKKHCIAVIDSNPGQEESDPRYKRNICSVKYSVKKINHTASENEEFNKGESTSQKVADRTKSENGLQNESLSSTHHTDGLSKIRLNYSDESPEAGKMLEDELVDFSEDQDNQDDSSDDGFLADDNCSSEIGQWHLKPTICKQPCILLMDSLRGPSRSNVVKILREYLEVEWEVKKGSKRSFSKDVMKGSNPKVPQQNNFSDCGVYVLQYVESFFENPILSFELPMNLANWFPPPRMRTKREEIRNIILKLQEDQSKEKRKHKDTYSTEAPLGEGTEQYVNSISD

[2] = target: T2, Protein RecA (Mycobacterium tuberculosis, UniProt P9WHJ3); assay: Fluorescence Cell-Free Homogeneous Dose Retest to Identify Inhibitors of RecA-Intein Splicing Activity. [Related pubchem assays (depositor defined):AID2097, AID2223, AID489010, AID492950]; type: functional
T2 sequence (P9WHJ3 whole entry): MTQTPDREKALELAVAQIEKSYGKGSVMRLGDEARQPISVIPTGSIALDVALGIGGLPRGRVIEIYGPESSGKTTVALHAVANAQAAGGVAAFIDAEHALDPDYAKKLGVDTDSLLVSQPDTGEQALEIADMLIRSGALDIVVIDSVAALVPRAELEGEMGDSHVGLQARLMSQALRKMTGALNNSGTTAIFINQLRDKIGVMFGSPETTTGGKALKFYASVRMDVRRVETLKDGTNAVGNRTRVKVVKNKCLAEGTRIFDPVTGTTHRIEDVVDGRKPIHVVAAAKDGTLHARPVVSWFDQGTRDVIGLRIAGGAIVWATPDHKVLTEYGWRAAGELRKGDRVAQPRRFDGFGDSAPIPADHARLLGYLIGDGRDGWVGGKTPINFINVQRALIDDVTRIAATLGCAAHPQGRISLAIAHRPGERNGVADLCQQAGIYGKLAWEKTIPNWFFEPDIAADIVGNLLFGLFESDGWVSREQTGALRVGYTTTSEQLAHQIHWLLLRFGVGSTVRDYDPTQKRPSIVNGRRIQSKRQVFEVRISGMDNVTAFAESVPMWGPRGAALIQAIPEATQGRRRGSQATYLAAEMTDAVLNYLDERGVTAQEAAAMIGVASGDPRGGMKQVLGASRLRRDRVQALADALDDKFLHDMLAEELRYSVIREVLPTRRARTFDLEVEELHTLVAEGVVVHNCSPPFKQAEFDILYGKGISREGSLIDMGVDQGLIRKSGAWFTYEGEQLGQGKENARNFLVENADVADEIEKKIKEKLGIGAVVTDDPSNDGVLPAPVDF

[3] = target: T1, Sentrin-specific protease 6; assay: SAR Analysis of small molecule inhibitors of Sentrin-specific protease 6 (SENP6) using a Luminescent assay. [Related pubchem assays (depositor defined):AID2582, AID2599]; type: functional
[4] = target: Ras and Rab interactor 1/Tyrosine-protein kinase ABL1 (Homo sapiens, UniProt P00519+Q13671); type: functional;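 further: biochemical TR-FRET dose-response test measuring inhibition of binding between Rin1 and Abl proteins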
[5] = target: Tyrosyl-DNA phosphodiesterase 2 (Homo sapiens, UniProt O95551); assay: potency against TDP2 phosphodiesterase activity – biochemical, epi absorbance, IC50, dose response (AID 743297)
Chain of Tyrosyl-DNA phosphodiesterase 2 (O95551 whole entry): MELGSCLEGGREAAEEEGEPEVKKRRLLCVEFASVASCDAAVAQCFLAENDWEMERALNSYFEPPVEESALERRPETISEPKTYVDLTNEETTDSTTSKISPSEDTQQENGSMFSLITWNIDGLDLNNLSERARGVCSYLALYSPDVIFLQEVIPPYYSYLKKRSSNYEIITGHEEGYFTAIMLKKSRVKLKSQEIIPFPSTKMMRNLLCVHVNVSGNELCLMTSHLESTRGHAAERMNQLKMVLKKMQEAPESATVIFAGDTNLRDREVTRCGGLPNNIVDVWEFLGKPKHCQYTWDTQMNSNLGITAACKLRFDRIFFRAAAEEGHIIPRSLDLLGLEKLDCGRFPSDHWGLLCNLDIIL

Chain of Ras and Rab interactor 1/Tyrosine-protein kinase ABL1 (P00519 whole entry): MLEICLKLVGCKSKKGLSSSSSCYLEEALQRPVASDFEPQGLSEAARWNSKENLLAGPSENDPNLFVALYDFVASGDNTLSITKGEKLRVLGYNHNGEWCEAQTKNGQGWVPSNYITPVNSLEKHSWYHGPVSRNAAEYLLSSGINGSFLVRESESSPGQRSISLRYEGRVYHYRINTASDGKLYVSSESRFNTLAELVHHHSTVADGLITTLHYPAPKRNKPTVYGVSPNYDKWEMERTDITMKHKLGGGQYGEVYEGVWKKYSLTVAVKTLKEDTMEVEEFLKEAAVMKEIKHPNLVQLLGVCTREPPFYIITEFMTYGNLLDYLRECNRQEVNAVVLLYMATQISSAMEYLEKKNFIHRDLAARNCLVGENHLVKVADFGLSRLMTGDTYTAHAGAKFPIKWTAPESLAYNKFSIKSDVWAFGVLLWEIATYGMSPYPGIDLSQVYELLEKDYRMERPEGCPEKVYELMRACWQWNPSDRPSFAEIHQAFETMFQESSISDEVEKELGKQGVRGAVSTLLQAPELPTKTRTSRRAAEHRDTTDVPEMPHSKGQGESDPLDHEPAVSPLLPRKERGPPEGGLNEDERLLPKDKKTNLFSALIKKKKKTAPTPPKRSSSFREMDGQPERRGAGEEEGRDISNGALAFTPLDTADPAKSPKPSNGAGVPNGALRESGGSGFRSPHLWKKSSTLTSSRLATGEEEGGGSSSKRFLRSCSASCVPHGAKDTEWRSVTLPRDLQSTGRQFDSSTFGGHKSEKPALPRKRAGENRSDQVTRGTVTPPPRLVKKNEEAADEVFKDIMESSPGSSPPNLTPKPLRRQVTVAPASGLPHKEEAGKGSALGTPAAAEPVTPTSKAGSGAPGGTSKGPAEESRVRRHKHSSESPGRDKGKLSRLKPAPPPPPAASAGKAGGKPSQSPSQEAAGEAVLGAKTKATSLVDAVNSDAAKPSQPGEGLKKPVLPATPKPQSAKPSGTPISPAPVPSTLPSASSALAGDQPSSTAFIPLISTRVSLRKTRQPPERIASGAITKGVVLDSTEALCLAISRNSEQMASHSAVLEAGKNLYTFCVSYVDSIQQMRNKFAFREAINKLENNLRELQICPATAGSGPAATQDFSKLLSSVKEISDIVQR
Chain of Ras and Rab interactor 1/Tyrosine-protein kinase ABL1 (Q13671 whole entry): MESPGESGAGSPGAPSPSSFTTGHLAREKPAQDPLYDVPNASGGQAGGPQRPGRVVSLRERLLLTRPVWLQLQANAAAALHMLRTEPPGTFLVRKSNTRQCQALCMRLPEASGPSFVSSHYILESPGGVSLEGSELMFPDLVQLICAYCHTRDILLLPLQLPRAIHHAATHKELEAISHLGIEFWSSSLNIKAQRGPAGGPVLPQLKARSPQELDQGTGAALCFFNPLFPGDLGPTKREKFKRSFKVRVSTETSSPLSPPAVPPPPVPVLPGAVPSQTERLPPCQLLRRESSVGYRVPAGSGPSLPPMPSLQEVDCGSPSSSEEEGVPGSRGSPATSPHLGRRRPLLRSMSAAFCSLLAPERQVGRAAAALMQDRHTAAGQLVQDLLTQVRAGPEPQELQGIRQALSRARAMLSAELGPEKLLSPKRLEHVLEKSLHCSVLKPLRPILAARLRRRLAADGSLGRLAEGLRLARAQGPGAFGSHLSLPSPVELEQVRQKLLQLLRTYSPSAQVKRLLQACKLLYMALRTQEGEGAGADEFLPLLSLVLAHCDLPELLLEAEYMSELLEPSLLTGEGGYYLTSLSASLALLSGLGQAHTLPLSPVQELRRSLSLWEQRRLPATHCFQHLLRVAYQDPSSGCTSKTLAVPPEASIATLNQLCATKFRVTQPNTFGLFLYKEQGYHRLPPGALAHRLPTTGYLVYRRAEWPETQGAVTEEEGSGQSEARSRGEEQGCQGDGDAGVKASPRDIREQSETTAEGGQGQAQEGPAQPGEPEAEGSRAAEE

SMILES: O=C(NN=c1c(=O)c2ccccc2c1=O)c1ccccc1
- IC50 [1]: 3.47 µM (active)
- EC50 [2]: 4.83 µM (active)
- IC50 [3]: 5.31 µM (active)
- IC50 [4]: > 73.5 µM (inactive)
- IC50 [5]: 5.36 µM (active)
